Reference: publication PMC10587169, “Tuning aminopolycarboxylate chelators for efficient complexation of trivalent actinides” (Scientific Reports, 2023)
Like-named read-outs stand apart in the source and are kept apart here.

Tests used:
[1] = Potentiometric titration, acid dissociation constants; assay type: physicochemical
Method: (§1) All potentiometric titrations were run using a Mettler Toledo T90 autotitrator equipped with an Orion Ross Semi-micro glass electrode with the junction stabilization solution changed to 5.0 M NaCl to prevent precipitation with perchlorate media. All titrations were performed under a hydrated nitrogen atmosphere. The forward titration measurements (acidic titrand, basic titrant) of H4octapa in nitrate electrolyte medium were performed as described previously due to the limited solubility of this ligand in a 2 M (Na^+/H^+)ClO4 medium. Acid dissociation constants of H4octapa in perchlorate electrolyte medium were also determined by titrating in reverse (basic titrand, acidic titrant) to alleviate the solubility concerns. Titrations of H4pypa-peg were performed in reduced-volume glass titration cups (10 mL nominal) due to the limited supply of this ligand. All potentiometric titrations were run in triplicate. The choice of using p[H^+] was explained in Heathman et al.[15], and the calibration of the p[H^+] scale utilized Gran analysis through titration of a strong acid with the base used in the potentiometric titrations[29]–[31]. Potentiometric titration data was modeled and analyzed using Hyperquad2013 to determine acid dissociation and metal complexation stability constants[32],[33].
Changes in hydrogen ion concentration were monitored using a glass electrode for a solution of H4octapa as either NaOH or HClO4 were titrated into the solutions. […] The experimental potentiometric curve collected for a forward titration of H4octapa in (Na^+/H^+)NO3 is presented in Fig. 3A, alongside the distribution curves for the identified HnL species. Following those studies, the acid/base conditions were reversed and octapa^4− was titrated in 2.0 M (Na^+/H^+)ClO4 using HClO4 (SI Figure S7). The potentiometric curves are well respresented by five proton dissociation equilibria. The calculated equilibrium constants correspond with the protonation reactions for two aliphatic amines, two pyridine nitrogens, and one carboxylate group with the protonation sequence described by Eq. (2). The acid dissociation constants (pKa = − log10Ka) for H4octapa are reported in Table 1 alongside previously reported values in the literature.
The experimental potentiometric titration curve and the distribution curves for the associated HnL species for H4pypa-peg are presented in Fig. 3B. […] For comparison, the protonation equilibria of H4edta were also studied in 2.0 M (Na^+/H^+)ClO4. The pKa values for H4edta are listed in Table 2 and collected potentiometric titration curves (forward and reverse) are presented in SI Figure S8. For H4pypa-peg coordination pocket the protonation of H9L^5+, H7L^3+, and H6L^2+ cannot be characterized using a glass electrode. The H6L^2+ species likely represents a protonated carboxylate group, while H5L^+ and H4L may describe the pyridinecarboxylate nitrogens. The equilibrium involving H3L^− likely describes the dissociation of the protonated pyridine nitrogen, while the two most basic species in this ligand (HL^3− and H2L^2−) are likely the bridging amines in the H4pypa-peg backbone. Equation (3) describes the protonation sequence for H4pypa-peg.3 H10-aL^+6-a⇆H9-aL^+5-a+H^+Ka=H^+·H9-aL^+5-a/H10-aL^+6-aa=1…9

[2] = Potentiometric complexometric titration; assay type: binding; conditions: for logβ101 (ML), Nd / logβ111 (MHL), Nd / logK111, Dy / logK111, Eu / logK111, Ho / logK111, La / logK111, Lu / logK111, Nd / logK111, Tb / logβ101 (ML), Dy / logβ101 (ML), Eu / logβ101 (ML), Ho / logβ101 (ML), La / logβ101 (ML), Lu / logβ101 (ML), Tb / logβ111 (MHL), Dy / logβ111 (MHL), Eu / logβ111 (MHL), Ho / logβ111 (MHL), La / logβ111 (MHL), Lu / logβ111 (MHL), Tb: potentiometry, I = 2.0 M (Na+/H+)ClO4, T = 20.0 °C; for logK111, Dy / logK111, Eu / logK111, Ho / logK111, La / logK111, Lu / logK111, Nd / logK111, Tb / logβ101 (ML), Dy / logβ101 (ML), Eu / logβ101 (ML), Ho / logβ101 (ML), La / logβ101 (ML), Lu / logβ101 (ML), Tb / logβ111 (MHL), Dy / logβ111 (MHL), Eu / logβ111 (MHL), Ho / logβ111 (MHL), La / logβ111 (MHL), Lu / logβ111 (MHL), Tb: ±3σ
Method: as §1
The coordination of La^3+, Nd^3+, Eu^3+, Tb^3+, Dy^3+, Ho^3+, and Lu^3+ with H4octapa and H4pypa-peg was studied. Figures 4A, B show the potentiometric curves collected when Nd^3+ was titrated with H4octapa and H4pypa-peg, respectively. Both p[H^+] curves show the characteristic buffering region due to deprotonation of metal–ligand complexes when titrated with base. The experimental p[H^+] trend is best represented when considering the presence of MHL(aq) and ML^– complexes as generalized by Eqs. (4) and (5). The progressive formation of the metal complexes throughout the titration is illustrated by species distribution curves, also shown in Figs. 4A, B. The complex formation equilibria are described by the conditional stability constants, β101 and β111, listed in Table 3.

[3] = aqueous 2.0 M (Na+/H+)ClO4 electrolyte solution, I = 2.0 M (Na+/H+)ClO4 at 20.0 °C, read-out: pKa H2L species
[4] = aqueous 2.0 M (Na+/H+)ClO4 electrolyte solution, I = 2.0 M (Na+/H+)ClO4 at 20.0 °C, read-out: pKa H3L species
[5] = aqueous 2.0 M (Na+/H+)ClO4 electrolyte solution, I = 2.0 M (Na+/H+)ClO4 at 20.0 °C, read-out: pKa H4L species
[6] = aqueous 2.0 M (Na+/H+)ClO4 electrolyte solution, I = 2.0 M (Na+/H+)ClO4 at 20.0 °C, read-out: pKa H5L species
[7] = aqueous 2.0 M (Na+/H+)ClO4 electrolyte solution, I = 2.0 M (Na+/H+)ClO4 at 20.0 °C, read-out: pKa H6L species
[8] = aqueous 2.0 M (Na+/H+)ClO4 electrolyte solution, I = 2.0 M (Na+/H+)ClO4 at 20.0 °C, read-out: pKa HL species

| Structure (SMILES) | pKa [1, 3] | pKa [1, 4] | pKa [1, 5] | pKa [1, 6] | pKa [1, 7] | pKa [1, 8] | logβ101 (ML), Nd [2] | logβ111 (MHL), Nd [2] | logK111, Dy [2] | logK111, Eu [2] | logK111, Ho [2] | logK111, La [2] | logK111, Lu [2] | logK111, Nd [2] | logK111, Tb [2] | logβ101 (ML), Dy [2] | logβ101 (ML), Eu [2] | logβ101 (ML), Ho [2] | logβ101 (ML), La [2] | logβ101 (ML), Lu [2] | also measured |
| --- | --- | --- | --- | --- | --- | --- | --- | --- | --- | --- | --- | --- | --- | --- | --- | --- | --- | --- | --- | --- | --- |
| O=C(O)CN(CCN(CCN(CC(=O)O)CC(=O)O)CC(=O)O)CCN(CC(=O)O)CC(=O)O [H6ttha, triethylenetetraamine-N,N,N',N'',N''',N'''-hexaacetic acid] | 8.67 | 6.27 | 4.12 | 2.7 | 2.19 | 9.48 | 21.78(2) | 25.42(2) |  |  |  |  |  |  |  |  |  |  |  |  | pKa ([1]; aqueous 2.0 M (Na+/H+)ClO4 electrolyte solution, I = 2.0 M (Na+/H+)ClO4 at 20.0 °C, read-out: pKa H7L species): 1.86; logβ121 (MH2L), Nd3+ ([2]; determined using potentiometry, I = 2.0 M (Na+/H+)ClO4 at 20.0 °C): 27.74(3) |
| O=C(O)CN(Cc1cc(-c2cn(CCOCCOCCO)nn2)cc(CN(CC(=O)O)Cc2cccc(C(=O)O)n2)n1)Cc1cccc(C(=O)O)n1 [H4pypa-peg, 6,6'-((((4-(1-(2-(2-(2-hydroxyethoxy)ethoxy)ethyl)-1H-1,2,3-triazol-4-yl)pyridine-2,6-diyl)bis–(methylene))bis–((carboxymethyl)azanediyl))bis–(methylene)) dipicolinic acid] |  |  |  |  |  |  | 18.20 (2) | 20.43 (2) | 1.97 (2) | 1.96 (1) | 1.80 (4) | 2.32 (1) | 1.87 (5) | 2.22 (2) | 2.02 (2) | 20.05 (1) | 18.91 (1) | 20.50 (4) | 17.86 (1) | 20.72 (5) | pKa ([1]; aqueous 2.0 M (Na+/H+)ClO4 electrolyte solution, I = 2.0 M (Na+/H+)ClO4 (Table 2), read-out: pKa H2L2-): 6.45; pKa ([1]; aqueous 2.0 M (Na+/H+)ClO4 electrolyte solution, I = 2.0 M (Na+/H+)ClO4 (Table 2), read-out: pKa H3L-): 3.92; pKa ([1]; aqueous 2.0 M (Na+/H+)ClO4 electrolyte solution, I = 2.0 M (Na+/H+)ClO4 (Table 2), read-out: pKa H4L(aq)): 3.37; pKa ([1]; aqueous 2.0 M (Na+/H+)ClO4 electrolyte solution, I = 2.0 M (Na+/H+)ClO4 (Table 2), read-out: pKa H5L+): 2.45; pKa ([1]; aqueous 2.0 M (Na+/H+)ClO4 electrolyte solution, I = 2.0 M (Na+/H+)ClO4 (Table 2), read-out: pKa H6L2+): 1.43; pKa ([1]; aqueous 2.0 M (Na+/H+)ClO4 electrolyte solution, I = 2.0 M (Na+/H+)ClO4 (Table 2), read-out: pKa HL3-): 7.44; logβ101 (ML), Tb [2]: 19.75 (2); logβ111 (MHL), Dy [2]: 22.03 (2); logβ111 (MHL), Eu [2]: 20.87 (1); logβ111 (MHL), Ho [2]: 22.31 (4); logβ111 (MHL), La [2]: 20.18 (1); logβ111 (MHL), Lu [2]: 22.60 (5); logβ111 (MHL), Tb [2]: 21.77 (2) |
| O=C(O)CN(CCN(CC(=O)O)Cc1cccc(C(=O)O)n1)Cc1cccc(C(=O)O)n1 [H4octapa, 6,6′-((ethane-1,2-diylbis–((carboxymethyl)azanediyl))bis–(methylene))dipicolinic acid] | 5.57 | 3.82 | 3.18 | 1.63 |  | 8.41 | 18.19 (1) | 19.92 (2) – | 1.28 (2) | 1.13 (4) | 0.53 (2) | 1.53 (4) | 1.69 (4) | 1.73 (2) – | 1.04 (7) | 18.48 (2) | 18.49 (2) | 18.57 (2) | 17.77 (2) | 17.97 (3) | pKa ([1]; aqueous 2.0 M (Na+/H+)NO3 electrolyte solution, I = 2.0 M (Na+/H+)NO3 at 25.0 °C, read-out: pKa H2L2-): 5.27; pKa ([1]; aqueous 2.0 M (Na+/H+)NO3 electrolyte solution, I = 2.0 M (Na+/H+)NO3 at 25.0 °C, read-out: pKa H3L-): 3.63; pKa ([1]; aqueous 2.0 M (Na+/H+)NO3 electrolyte solution, I = 2.0 M (Na+/H+)NO3 at 25.0 °C, read-out: pKa H4L(aq)): 3; pKa ([1]; aqueous 2.0 M (Na+/H+)NO3 electrolyte solution, I = 2.0 M (Na+/H+)NO3 at 25.0 °C, read-out: pKa H5L+): 1.63; pKa ([1]; aqueous 2.0 M (Na+/H+)NO3 electrolyte solution, I = 2.0 M (Na+/H+)NO3 at 25.0 °C, read-out: pKa HL3-): 8.16; logβ101 (ML), Tb [2]: 18.55 (2); logβ111 (MHL), Dy [2]: 19.76 (1); logβ111 (MHL), Eu [2]: 19.62 (4); logβ111 (MHL), Ho [2]: 19.10 (1); logβ111 (MHL), La [2]: 19.30 (4); logβ111 (MHL), Lu [2]: 19.66 (4); logβ111 (MHL), Tb [2]: 19.59 (7) |
| O=C(O)CN(CCN(CC(=O)O)CC(=O)O)CCN(CC(=O)O)CC(=O)O [H5dtpa, diethylenetriamine-N,N,N',N'',N''-pentaacetic acid] | 8.31 | 5.57 | 4.38 | 2.53 | 2.41 | 9.5 |  |  |  |  |  |  |  |  |  |  |  |  |  |  |  |
